Assay results taken from US20120316105A1, “Polymyxin Derivates Useful As Antibacterial Agents” (priority 2011, published 2012).
Bridge positions count the residues as written; N and C are the ends. Square brackets hold non-standard residues; d marks the D form. Peptide text beside a SMILES is read from it. * marks the point of attachment. X18 = N#Cc1ccc(-c2cc(C(=O)*)ccc2C#N)cc1; X4 = N#Cc1cccc(-c2cc(C(=O)*)ccc2C#N)c1; X21 = N#Cc1cccc(-c2cc(C(=O)*)ccn2)c1; X30 = O=C(c1ccc(Cl)c(-c2ccccc2)c1)*; X39 = COc1ccc(C(=O)*)cc1-c1ccccc1; X12 = O=C(c1cccc(-c2ccccc2F)c1)*; X23 = O=C(c1cnnc(-c2ccccc2)c1)*; X28 = O=C(c1ccc(Oc2ccccc2)nc1)*; Dab = NCC[C@H](N)C(=O)O; Dap = NC[C@H](N)C(=O)O

Legend:
[1] = system: AB-1649, polymyxin-resistant clinical isolate of Acinetobacter baumannii; type: cell-based; settings: AB-1649, polymyxin-resistant clinical isolate of
Method: (§1) Minimum bactericidal concentration (MBC, mg/L), minimum inhibitory concentration (MIC, mg/L), and human renal proximal tubule epithelial cell line cytotoxicity concentration 50% (hRPTEC, TC50, micromolar) for compounds of Formula I are listed in Table 2. The compounds of Formula I were tested as the corresponding trifluoroacetate salt except for Example 1 which was tested as the sulfate salt. For Table 2 below: PMB=polymyxin B as the sulfate salt (Bedford Laboratories, pharmaceutical grade); PMB1=polymyxin B1 as the trifluoroacetate salt; Nona=polymyxin B nonapeptide as the trifluoroacetate salt. PMB1 and Nona were prepared using the solid phase methodology described in the experimental section herein.
(§2) The in vitro antibacterial activity of compounds of Formula I was evaluated by MIC testing according to Clinical and Laboratory Standards Institute (CLSI). See: Clinical and Laboratory Standards Institute. Methods for Dilution Antimicrobial Susceptibility Tests for Bacteria that Grow Aerobically; Approved Standard-Eighth Edition. CLSI document M7-A8 [ISBN 1-56238-689-1]. Clinical and Laboratory Standards Institute, 940 West Valley Road, Suite 1400, Wayne, Pa. 19087-1898 USA, 2006; also Clinical and Laboratory Standards Institute. Performance Standards for Antimicrobial Susceptibility Testing; Twentieth Informational Supplement. CLSI document M100-S20 [ISBN 1-56238-716-2]. Clinical and Laboratory Standards Institute. Methods for Determining Bactericidal Activity of Antimicrobial Agents; Approved Guideline. CLSI document M26-A (ISBN 1-56238-384-1). CLSI, 940 West Valley Road, Suite 1400, Wayne, Pa. 19087-1898 USA, 1999.
AB-1649 is a polymyxin-resistant clinical isolate of Acinetobacter baumannii obtained from JMI labs (www.jmilabs.com);

[2] = Cytotoxicity assay (LDH release), hRPTEC; type: cell-based, human; settings: human
Method: as §1
Human Renal Proximal Tubule Epithelial cells (hRPTEC) were obtained from Lonza (Walkersville, Md., USA) and cultured in REGM (Renal Epithelial Cell Basal Medium supplemented with human epithelial growth factor, hydrocortisone, epinephrine, insulin, triiodothyronine, transferrin, gentamycin/amphotericin-B, and fetal bovine serum). The hRPTEC cells were seeded into 96-well plates and incubated at 37° C. in 5% CO2. Following a growth period of 72 hours, cells were treated with compounds at 100, 67, 44, 30, 20 and 13 micromolar for 24 hours at 37° C. in 5% CO2. The cell supernatant was then harvested for determination of LDH (lactate dehydrogenase) production. The Cytotoxicity Detection Kit from Roche was used for the measurement of LDH activity released from damaged cells. The Toxic Concentration 50% (TC50, micromolar) values were determined for each compound and compared to the control compounds (polymyxin B was used as a positive control and polymyxin B nonapepetide was used as negative control).

[3] = system: AB-1649, polymyxin-resistant clinical isolate of Acinetobacter baumannii; type: cell-based; settings: AB-1649, polymyxin-resistant clinical isolate of; remark: listed apart in the source
Method: as §1, §2
(§3) The MIC determination is a standard laboratory method for evaluating the antibacterial activity of a compound. The MIC represents the lowest drug concentration that inhibits visible growth of bacteria following overnight incubation. […] Typically, the drug concentration range is broken down into 2-fold increments (e.g. 0.06 mg/L, 0.12 mg/L, 0.25 mg/L, 0.50 mg/L, 1.0 mg/L, etc.) and the various drug concentrations are all individually incubated overnight with approximately the same number of bacteria. The MIC is then determined by visually inspecting the drug effect at each concentration, and identifying the lowest drug concentration that has inhibited bacterial growth as compared to the drug free control. Typically, bacteria continue to grow at drug concentrations lower than the MIC and don't grow at concentrations at and above the MIC.
(§4) The MIC values described in Table 2 below were derived from assays wherein each test compound was evaluated in duplicate. In cases where the duplicate values varied by 0-2-fold, the lower of the two values was reported below. Generally speaking, if the duplicate values varied by more than 2-fold, the assay was considered non-valid and was repeated until the variation between duplicate runs was ≦2-fold. In line with the CLSI guidelines referred to above, both control organisms and reference compounds were utilized in each MIC assay to provide proper quality control. MIC values generated with these control organisms and reference compounds were required to fall within a defined range for the assay to be considered valid and be included herein. Those skilled in the art will recognize that MIC values can and do vary from experiment to experiment. Generally speaking, it should be recognized that MIC values often vary +/−2-fold from experiment to experiment. While a single MIC is reported for each compound and each microorganism, the reader should not conclude that each compound was only tested once. Several of the compounds were subjected to multiple tests. The data reported in Table 2 is reflective of the compounds relative activity and different MICs may have been generated on these occasions in line with the guidelines described above.
(§5) The following bacterial strains were used in these MIC determinations: […]

[4] = system: Pseudomonas aeruginosa strain PA01; type: cell-based; settings: strain
Method: as §1, §2, §3, §4, §5

[5] = system: AB-3167, clinical isolate of Acinetobacter baumannii; type: cell-based; settings: AB-3167, clinical isolate of
Method: as §1, §2, §3, §4, §5

[6] = system: PA-1646, polymyxin-resistant clinical isolate of Pseudomonas aeruginosa; type: cell-based; settings: PA-1646, polymyxin-resistant clinical isolate of
Method: as §1, §2, §3, §4, §5

[7] = system: PA-1646, polymyxin-resistant clinical isolate of Pseudomonas aeruginosa; type: cell-based; settings: PA-1646, polymyxin-resistant clinical isolate of; remark: listed apart in the source
Method: as §1, §2
PA-1646 is a polymyxin-resistant clinical isolate of Pseudomonas aeruginosa obtained from JMI labs (www.jmilabs.com);

[8] = system: EC-1, mouse virulent strain of Escherichia coli; type: cell-based; settings: E. coli EC-1; overnight incubation, lower of duplicate values; trifluoroacetate salt (Example 1 and PMB sulfate)
Method: as §1, §2, §3, §4
The following bacterial strains were used in these MIC determinations:
EC-1 is a mouse virulent strain of Escherichia coli.

SMILES	AB-1649 MBC [1]	CC50 at 24 h [2]	AB-1649 MIC [3]	PA01 MIC [4]	AB-3167 MIC [5]	PA-1646 MIC [6]	PA-1646 MBC [7]	EC-1 MIC [8]
CC(C)C[C@@H]1NC(=O)[C@@H](Cc2ccccc2)NC(=O)[C@H](CCN)NC(=O)[C@@H](NC(=O)[C@H](CN)NC(=O)[C@@H](NC(=O)[C@H](CCN)NC(=O)c2cccc(-c3ccccc3F)c2)[C@@H](C)O)CCNC(=O)[C@H]([C@@H](C)O)NC(=O)[C@H](CCN)NC(=O)[C@H](CCN)NC1=O [Example 9] (X12-[Dab]T[Dap][Dab][Dab][dF]L[Dab][Dab]T; lactam 4-C)	2 µg/mL	24 µM	1 µg/mL	0.5 µg/mL	0.25 µg/mL	2 µg/mL	2 µg/mL	0.25 µg/mL
CC(C)C[C@@H]1NC(=O)[C@@H](Cc2ccccc2)NC(=O)[C@H](CCN)NC(=O)[C@@H](NC(=O)[C@H](CN)NC(=O)[C@@H](NC(=O)[C@H](CCN)NC(=O)c2ccc(Cl)c(-c3ccccc3)c2)[C@@H](C)O)CCNC(=O)[C@H]([C@@H](C)O)NC(=O)[C@H](CCN)NC(=O)[C@H](CCN)NC1=O [Example 10] (X30-[Dab]T[Dap][Dab][Dab][dF]L[Dab][Dab]T; lactam 4-C)	1 µg/mL	14 µM	1 µg/mL	1 µg/mL	0.5 µg/mL	0.5 µg/mL	1 µg/mL	0.25 µg/mL
CC(C)C[C@@H]1NC(=O)[C@@H](Cc2ccccc2)NC(=O)[C@H](CCN)NC(=O)[C@@H](NC(=O)[C@H](CN)NC(=O)[C@@H](NC(=O)[C@H](CCN)NC(=O)c2cnnc(-c3ccccc3)c2)[C@@H](C)O)CCNC(=O)[C@H]([C@@H](C)O)NC(=O)[C@H](CCN)NC(=O)[C@H](CCN)NC1=O [Example 11] (X23-[Dab]T[Dap][Dab][Dab][dF]L[Dab][Dab]T; lactam 4-C)	4 µg/mL	84 µM	2 µg/mL	0.25 µg/mL	0.25 µg/mL	2 µg/mL	8 µg/mL	0.125 µg/mL
CC(C)C[C@@H]1NC(=O)[C@@H](Cc2ccccc2)NC(=O)[C@H](CCN)NC(=O)[C@@H](NC(=O)[C@H](CN)NC(=O)[C@@H](NC(=O)[C@H](CCN)NC(=O)c2ccc(Oc3ccccc3)nc2)[C@@H](C)O)CCNC(=O)[C@H]([C@@H](C)O)NC(=O)[C@H](CCN)NC(=O)[C@H](CCN)NC1=O [Example 12] (X28-[Dab]T[Dap][Dab][Dab][dF]L[Dab][Dab]T; lactam 4-C)	4 µg/mL	61 µM	2 µg/mL	1 µg/mL	0.25 µg/mL	4 µg/mL	16 µg/mL	0.25 µg/mL
CC(C)C[C@@H]1NC(=O)[C@@H](Cc2ccccc2)NC(=O)[C@H](CCN)NC(=O)[C@@H](NC(=O)[C@H](CN)NC(=O)[C@@H](NC(=O)[C@H](CCN)NC(=O)c2ccc(C#N)c(-c3ccc(C#N)cc3)c2)[C@@H](C)O)CCNC(=O)[C@H]([C@@H](C)O)NC(=O)[C@H](CCN)NC(=O)[C@H](CCN)NC1=O [Example 13] (X18-[Dab]T[Dap][Dab][Dab][dF]L[Dab][Dab]T; lactam 4-C)	2 µg/mL	58 µM	2 µg/mL	0.5 µg/mL	0.25 µg/mL	2 µg/mL	4 µg/mL	0.25 µg/mL
CC(C)C[C@@H]1NC(=O)[C@@H](Cc2ccccc2)NC(=O)[C@H](CCN)NC(=O)[C@@H](NC(=O)[C@H](CN)NC(=O)[C@@H](NC(=O)[C@H](CCN)NC(=O)c2ccc(C#N)c(-c3cccc(C#N)c3)c2)[C@@H](C)O)CCNC(=O)[C@H]([C@@H](C)O)NC(=O)[C@H](CCN)NC(=O)[C@H](CCN)NC1=O [Example 14] (X4-[Dab]T[Dap][Dab][Dab][dF]L[Dab][Dab]T; lactam 4-C)	2 µg/mL	43 µM	2 µg/mL	0.5 µg/mL	0.5 µg/mL	4 µg/mL	16 µg/mL	0.5 µg/mL
CC(C)C[C@@H]1NC(=O)[C@@H](Cc2ccccc2)NC(=O)[C@H](CCN)NC(=O)[C@@H](NC(=O)[C@H](CN)NC(=O)[C@@H](NC(=O)[C@H](CCN)NC(=O)c2ccnc(-c3cccc(C#N)c3)c2)[C@@H](C)O)CCNC(=O)[C@H]([C@@H](C)O)NC(=O)[C@H](CCN)NC(=O)[C@H](CCN)NC1=O [Example 15] (X21-[Dab]T[Dap][Dab][Dab][dF]L[Dab][Dab]T; lactam 4-C)	2 µg/mL	43 µM	2 µg/mL	0.5 µg/mL	0.25 µg/mL	4 µg/mL	16 µg/mL	0.125 µg/mL
COc1ccc(C(=O)N[C@@H](CCN)C(=O)N[C@H](C(=O)N[C@@H](CN)C(=O)N[C@H]2CCNC(=O)[C@H]([C@@H](C)O)NC(=O)[C@H](CCN)NC(=O)[C@H](CCN)NC(=O)[C@H](CC(C)C)NC(=O)[C@@H](Cc3ccccc3)NC(=O)[C@H](CCN)NC2=O)[C@@H](C)O)cc1-c1ccccc1 [Example 16] (X39-[Dab]T[Dap][Dab][Dab][dF]L[Dab][Dab]T; lactam 4-C)	2 µg/mL	27 µM	2 µg/mL	0.5 µg/mL	0.5 µg/mL	1 µg/mL	2 µg/mL	0.25 µg/mL
